{
  "source": "the NIST ThermoML archive (doi:10.1016/j.fluid.2010.11.026)",
  "details": "Liquid, Closed cell (Static) method",
  "note": "± gives the expanded uncertainty stated by the source.",
  "data": [
    {"smiles": "CCCOC(C)=O", "note": "[propyl ethanoate]", "values": [
      {"measurement": "vapor or sublimation pressure", "setting": "331.7 K", "value": "22.2 ± 0.4", "unit": "kPa"},
      {"measurement": "vapor or sublimation pressure", "setting": "340.16 K", "value": "31.1 ± 0.4", "unit": "kPa"},
      {"measurement": "vapor or sublimation pressure", "setting": "348.06 K", "value": "41.8 ± 0.4", "unit": "kPa"},
      {"measurement": "vapor or sublimation pressure", "setting": "353.27 K", "value": "50.4 ± 0.4", "unit": "kPa"},
      {"measurement": "vapor or sublimation pressure", "setting": "359.55 K", "value": "62.7 ± 0.4", "unit": "kPa"},
      {"measurement": "vapor or sublimation pressure", "setting": "363.29 K", "value": "71 ± 0.4", "unit": "kPa"},
      {"measurement": "vapor or sublimation pressure", "setting": "367.42 K", "value": "81.4 ± 0.5", "unit": "kPa"},
      {"measurement": "vapor or sublimation pressure", "setting": "371.07 K", "value": "91.5 ± 0.5", "unit": "kPa"},
      {"measurement": "vapor or sublimation pressure", "setting": "374.29 K", "value": "101.4 ± 0.5", "unit": "kPa"}
    ]},
    {"smiles": "CCO", "note": "[ethanol]", "values": [
      {"measurement": "vapor or sublimation pressure", "setting": "317 K", "value": "21.9 ± 0.4", "unit": "kPa"},
      {"measurement": "vapor or sublimation pressure", "setting": "325.12 K", "value": "32.5 ± 0.4", "unit": "kPa"},
      {"measurement": "vapor or sublimation pressure", "setting": "330.28 K", "value": "41.3 ± 0.4", "unit": "kPa"},
      {"measurement": "vapor or sublimation pressure", "setting": "335.45 K", "value": "52 ± 0.4", "unit": "kPa"},
      {"measurement": "vapor or sublimation pressure", "setting": "339.58 K", "value": "62.3 ± 0.4", "unit": "kPa"},
      {"measurement": "vapor or sublimation pressure", "setting": "342.32 K", "value": "70 ± 0.5", "unit": "kPa"},
      {"measurement": "vapor or sublimation pressure", "setting": "345.79 K", "value": "80.9 ± 0.5", "unit": "kPa"},
      {"measurement": "vapor or sublimation pressure", "setting": "348.45 K", "value": "90.2 ± 0.5", "unit": "kPa"},
      {"measurement": "vapor or sublimation pressure", "setting": "351.31 K", "value": "101.4 ± 0.5", "unit": "kPa"}
    ]},
    {"smiles": "CCCO", "note": "[propan-1-ol]", "values": [
      {"measurement": "vapor or sublimation pressure", "setting": "334.53 K", "value": "21.9 ± 0.4", "unit": "kPa"},
      {"measurement": "vapor or sublimation pressure", "setting": "342.07 K", "value": "31.2 ± 0.4", "unit": "kPa"},
      {"measurement": "vapor or sublimation pressure", "setting": "349.12 K", "value": "42.9 ± 0.4", "unit": "kPa"},
      {"measurement": "vapor or sublimation pressure", "setting": "353.96 K", "value": "52.7 ± 0.4", "unit": "kPa"},
      {"measurement": "vapor or sublimation pressure", "setting": "357.95 K", "value": "62.4 ± 0.4", "unit": "kPa"},
      {"measurement": "vapor or sublimation pressure", "setting": "361.25 K", "value": "71.4 ± 0.5", "unit": "kPa"},
      {"measurement": "vapor or sublimation pressure", "setting": "364.3 K", "value": "80.7 ± 0.5", "unit": "kPa"},
      {"measurement": "vapor or sublimation pressure", "setting": "367.51 K", "value": "91.6 ± 0.5", "unit": "kPa"},
      {"measurement": "vapor or sublimation pressure", "setting": "370.44 K", "value": "102.7 ± 0.5", "unit": "kPa"}
    ]}
  ]
}
